Assay [1] concerns human hepatic stellate cells (hHSC). As to the kind of experiment: hHSC activation by cholangiocyte supernatants from treated mice (qPCR). Format: cell-based. As to the method:
In vitro experiments were performed in human hepatic stellate cells (hHSC) that were purchased from ScienCell Research Laboratories (Carlsbad, Calif.) that were maintained in standard conditions.
[…] Activation of hHSCs was determined by qPCR for FN-1, TGF-β1, α-SMA, and collagen type-1a (Kennedy, L L et al., Knockout of microRNA-21 reduces biliary hyperplasia and liver fibrosis in cholestatic bile duct ligated mice, Lab Invest 96:1256-1267 (2016)).
Background: Real-time PCR tracks product formation cycle by cycle.

The subject of a further assay is WT mice. As to the kind of experiment: WT mice treated 1 wk with secretin: TGF-β1, fibrosis, cellular senescence. Format: in vivo, mouse. As to the method:
WT mice were treated for 1 wk with saline or secretin (Sct; 2.5 nmoles/kg body weight per day) before collecting cholangiocytes, HSCs and cholangiocyte supernatants. The levels of TGF-β1 were measured in short-term (6-hour) cultures of cholangiocytes by ELISA kits. Subsequently, we measured: (i) liver fibrosis by immunofluorescence for Col1a1 in liver sections and real-time PCR for TGF-β1, TFG-β1R, Col1a1, α-SMA and Fn1 in cholangiocytes and HSCs; and (ii) cellular senescence by immunofluorescence in liver sections for p16 and real-time PCR for p16 and p21 in cholangiocytes and HSC.

A further assay relates to IMCLs. As to the kind of experiment: IMCLs treated with Sct with/without microRNA 125b mimic precursor, TGF-β1 or r-VEGFA (Example 4). The assay is classed as cell-based, mouse. The following applies: Sct 10 nM, 12 hr. How it is done: Cholangiocytes were obtained by immunoaffinity separation, Cholangiocytes were obtained by immunoaffinity separation as described herein above, using a monoclonal antibody (a gift from Dr. R. Faris, Brown University, Providence, R.I.) that is expressed by all intrahepatic cholangiocytes. Cell viability (greater than 97%) was assessed by trypan blue exclusion. HSCs were isolated by LCM as described herein above. Frozen liver sections (n=3, 10 μm thick) were incubated overnight with an antibody against desmin (marker of stellate cells). Following staining, desmin-positive HSCs were dissected from the slides by a LCM system Leica LMD7000 (Buffalo Grove, Ill.) and collected into a PCR tube before being analyzed. The RNA from HSCs was extracted with the Arcturus PicoPure RNA isolation kit (Thermo Fisher Scientific CO, Mountain View, Calif.). The in vitro studies were performed in our immortalized murine biliary cell lines (IMCLs) and human hepatic stellate cell lines (HHSteCs, Sciencell, Carlsbad, USA).
In biliary supernatants, the levels of TGF-β1 were measured by ELISA kits. […] We also evaluated by immunofluorescence the expression of VEGFR-2 in cell smears of IMCLs and HHSteCs. […]

With secretin [Sct], the “expression of FN-1, TGF-β1, α-SMA and collagen type-1a in hHSCs” value in assay [1] (cholangiocyte supernatants from treated dnTGF-βRII mice 12 wks) is “further enhanced”; in assay [1] (cholangiocyte supernatants from treated dnTGF-βRII mice 34 wks), “reduced”. Further, the “TGF-β1 levels in cholangiocyte supernatant” value in the assay on WT mice (secretin 2.5 nmoles/kg/day 1 wk vs saline) is reported as “enhanced levels”. Further, in the assay with WT mice (secretin 1 wk), the “biliary immunoreactivity of Collagen I and mRNA of TGF-β1, TFG-β1R, Col1a1, α-SMA, Fn1 in cholangiocytes and HSCs” value was “increased”. For the same substance, in the assay on WT mice (secretin 1 wk), the “p16 immunoreactivity in liver sections, p16 and p21 expression in cholangiocytes” value was “enhanced”. In addition, the “p16 and p21 mRNA expression in isolated HSCs” value with WT mice (secretin 1 wk vs saline) was “reduced”. Also, in the assay on IMCLs, the “TGF-β1 mRNA expression of IMCLs and TGF-β1 levels in IMCLs supernatant” value was “increased”.

The record behind these values is patent publication US11318190B2, “Methods and compositions for treating liver disease” (UNITED STATES GOVERNMENT AS REPRESENTED BY THE DEPARTMENT …, priority 2017, dated 2022).
